The series in a line: passive permeability, PAMPA, ADME assay (AID 1508612). The following applies: pH 7.4, 30.0 min, 50.0 µM. Background: PAMPA measures passive passage across an artificial lipid membrane.
Regarding `Cc1ccc(-c2cc(C(=O)Nc3ccc(S(=O)(=O)N(C)C)cc3)c3ccccc3n2)cc1C`, the apparent permeability (Papp) (as a rule, a coefficient for how fast a substance crosses the barrier) came out at 23 ×10⁻⁶ cm/s.

In turn, `Cc1cccc(-n2cnc3cc(C(=O)N4CCCC(C(F)(F)F)C4)ccc32)c1` (configuration not stated) registered an apparent permeability coefficient (Papp) of over 1000 ×10⁻⁶ cm/s.

With `Nc1ccccc1OCCn1c(CCNC(=O)C2CCCCC2)nc2ccccc21`, the Papp is 746 ×10⁻⁶ cm/s.

As for `CC(C)c1ccc(CC(=O)N2CCCc3ncc(C(=O)Nc4cccnc4)cc32)cc1`, the apparent permeability (Papp) turned out to be 734 ×10⁻⁶ cm/s.

Consider `N#CC1(c2ccc(NC(=O)c3cccnc3NCc3ccncc3)cc2)CCCC1`, for which the apparent permeability coefficient (Papp) is over 1000 ×10⁻⁶ cm/s.

`COCCCNC(=O)c1cc2cc(S(=O)(=O)N(C)C)ccc2n1C` returned a Papp of 77.2 ×10⁻⁶ cm/s.

The molecule `CCNC(=O)c1coc(COc2ccc3c(c2)C(c2ccc(F)cc2)N(C(=O)CC(C)C)CC3)n1` (configuration not stated) displayed an apparent permeability (Papp) of 938 ×10⁻⁶ cm/s.

`CCNC(=O)Nc1ncc(-c2cc(-c3c(C)cc(OC)cc3C)nc(-c3cnccn3)n2)s1` yielded a Papp of 762 ×10⁻⁶ cm/s.

The molecule `N#Cc1nc(-c2cccc3ccccc23)oc1Nc1ccccc1` had an apparent permeability (Papp) of 821 ×10⁻⁶ cm/s.

`COc1cccc(N2CCN(c3ncc4c(n3)CCN(Cc3ccc(Br)cc3)C4)CC2)c1` gave an apparent permeability coefficient (Papp) of 25 ×10⁻⁶ cm/s.

For `O=C1Nc2ccccc2/C1=C\c1ccc([N+](=O)[O-])cc1`, the Papp was found to be 455 ×10⁻⁶ cm/s.

Molecule `CC(=O)c1c(C)c(C(=O)Nc2cccc([S+](=O)([O-])N3CCCCCC3)c2)n(C)c1C` gave a Papp of over 1000 ×10⁻⁶ cm/s.

In the case of `NC(=O)C1CCN(c2ncc(-c3cccc(F)c3)s2)CC1`, the Papp was 896 ×10⁻⁶ cm/s.

As to `NC(=O)C(=O)N/N=C/c1ccc([N+](=O)[O-])o1`, the apparent permeability (Papp) is 7.99 ×10⁻⁶ cm/s.

The molecule `COC(=O)c1ccc(Nc2nc(-c3ccncc3)nc3ccccc23)cc1OC` registered a Papp of 676 ×10⁻⁶ cm/s.

As for `COc1cccc(CNc2ccc(S(=O)(=O)Nc3ncc(-c4ccccc4)s3)cc2)c1O`, the Papp is 36.6 ×10⁻⁶ cm/s.

`Nc1nc2c(s1)C(c1cccc(Cl)c1Cl)CC(=O)N2` (configuration not stated): the apparent permeability coefficient (Papp) amounted to 505 ×10⁻⁶ cm/s.

`CCOc1ccc(C2c3c(oc4ccc(C)cc4c3=O)C(=O)N2CCCN(C)C)cc1` (configuration not stated) displayed an apparent permeability (Papp) of 516 ×10⁻⁶ cm/s.

`CCOC(=O)N1CCc2c(sc(NCc3sccc3C)c2C(=O)Nc2cc(Cl)ccc2OC)C1` had an apparent permeability (Papp) of under 1 ×10⁻⁶ cm/s.

Regarding `CN1CCN(Cc2ccc(-c3ccc(C(C)(C)C#N)cc3)nc2)CC1`, the apparent permeability (Papp) is over 1000 ×10⁻⁶ cm/s.

`c1ccc2c(Nc3ccon3)nc(-c3ccncc3)nc2c1` registered an apparent permeability (Papp) of 247 ×10⁻⁶ cm/s.

`COc1cccc(C(=O)Nc2ccc3c(N4CCOCC4)ncnc3c2)c1` returned an apparent permeability (Papp) of 39 ×10⁻⁶ cm/s.

Molecule `CC1=C(C(=O)NC2CCCCC2)C(c2ccccc2Br)N=C(Nc2nc3ccccc3o2)N1` (configuration not stated) had an apparent permeability (Papp) of 734 ×10⁻⁶ cm/s.

For `Cc1cccc(C)c1C(=O)Nc1cccc([S+](=O)([O-])N2CCCCCC2)c1`, the apparent permeability (Papp) amounted to 827 ×10⁻⁶ cm/s.

With `Cc1cnc(-c2ccccc2OC(C)C)nc1NCc1ccc(-n2ccnn2)cc1`, the Papp was over 1000 ×10⁻⁶ cm/s.

In the case of `N#Cc1cnc(NS(=O)(=O)c2ccc(NC(=O)Cc3ccc(F)c(Cl)c3)cc2)s1`, the apparent permeability (Papp) was under 1 ×10⁻⁶ cm/s.

Molecule `Cc1nn(Cc2ccc(Cl)cc2)c(C)c1NC(=O)c1cc(-c2ccc3c(c2)OCO3)on1` had a Papp of 836 ×10⁻⁶ cm/s.

`CN(C)c1ccc(-c2csc(N3CCC(C(N)=O)CC3)n2)cc1` had a Papp of 3.06 ×10⁻⁶ cm/s.

Take `COc1ccnc(NC(=S)N2CCN(c3ccc(Cl)c(Cl)c3)CC2)c1`: the Papp amounted to 601 ×10⁻⁶ cm/s.

`O=C1CCCC2=C1C(c1[nH]ncc1Br)N=C(Nc1nc3ccccc3o1)N2` (configuration not stated) registered an apparent permeability coefficient (Papp) of 797 ×10⁻⁶ cm/s.

`CNC(=O)c1cc(Oc2ccc(NC(=O)Nc3ccc(Cl)c(C(F)(F)F)c3)c(F)c2)ccn1` gave a Papp of under 1 ×10⁻⁶ cm/s.

`COc1ccc(-c2ccc(Nc3nc(-c4ccncc4)nc4ccccc34)cc2F)cc1F` came in with a Papp of 39.9 ×10⁻⁶ cm/s.

Consider `Cc1cccc(-n2cnc3cc(C(=O)N4CCCC(C)C4)ccc32)c1` (configuration not stated), for which the Papp was over 1000 ×10⁻⁶ cm/s.

`NC(=O)C1CCN(c2nc(-c3ccc(OCc4ccccc4)cc3)cs2)CC1`: the Papp was under 1 ×10⁻⁶ cm/s.

In the case of `CN1CCN(c2ccc(Nc3c4ccccc4nc4ccccc34)cc2)CC1`, the Papp is over 1000 ×10⁻⁶ cm/s.

`CCc1ccc(C2C(C(=O)Nc3ccccc3OC)=C(C)Nc3c(C(=O)Nc4ccc(C)cc4)cnn32)cc1` (configuration not stated) came in with a Papp of 547 ×10⁻⁶ cm/s.

In turn, `CCc1ccc(NC(=O)c2[nH]c(C)c(C(C)=O)c2C)cc1[S+](=O)([O-])Nc1ccccc1C#N` returned an apparent permeability coefficient (Papp) of 74.2 ×10⁻⁶ cm/s.

In the case of `O=C1CCCC2=C1C(c1[nH]ncc1Cl)N=C(Nc1nc3ccc(Cl)cc3o1)N2` (configuration not stated), the apparent permeability (Papp) worked out at 651 ×10⁻⁶ cm/s.

Consider `COc1ccc(-n2nc(C3CCCN([S+](=O)([O-])c4cccc(C(F)(F)F)c4)C3)[nH]c2=O)cc1` (configuration not stated), for which the Papp turned out to be 569 ×10⁻⁶ cm/s.

`CCOC(=O)c1[nH]c(C)c(CCC(=O)N2CCN(c3cc(C)ccc3C)CC2)c1C` yielded a Papp of over 1000 ×10⁻⁶ cm/s.

The molecule `O=C1Nc2ccccc2/C1=C/c1ccc[nH]1` had an apparent permeability (Papp) of 606 ×10⁻⁶ cm/s.

`Fc1ccc(CNc2ncnc3onc(-c4ccc(F)cc4)c23)cc1` came in with a Papp of over 1000 ×10⁻⁶ cm/s.

In turn, `COC(=O)c1ccc(O)c2ncc(N3CCN(C)CC3)cc12` registered a Papp of 845 ×10⁻⁶ cm/s.

In turn, `N#Cc1cccc(NC(=O)c2sc3nc4c(cc3c2N)N2CCC4CC2)c1` yielded an apparent permeability (Papp) of 917 ×10⁻⁶ cm/s.

The molecule `Cc1ccc(-c2cc(C(=O)NC3CCCCC3)c3ccccc3n2)cc1` registered a Papp of over 1000 ×10⁻⁶ cm/s.

For `Cc1ccc(C(=O)Nc2ccc(CN3CCN(C)CC3)c(C(F)(F)F)c2)cc1C#Cc1cnc2cccnn12`, the Papp was over 1000 ×10⁻⁶ cm/s.

The molecule `O=C(c1ccncc1)N1CCC2(CCCN(C(c3ccccc3)c3ccccc3)C2)CC1` returned an apparent permeability (Papp) of over 1000 ×10⁻⁶ cm/s.

`Cn1nnnc1Sc1ncnc2scc(-c3ccc(F)cc3)c12` gave an apparent permeability (Papp) of 911 ×10⁻⁶ cm/s.

In turn, `COc1ccc(-n2nc(C3CCCN(C(=O)c4ccccc4F)C3)[nH]c2=O)cc1` (configuration not stated) came in with an apparent permeability (Papp) of 476 ×10⁻⁶ cm/s.

For the molecule `Cc1ccc(-n2nc3c(N4CCCC(C(=O)NCc5ccccc5C)C4)nnc(C)c3c2C)cc1` (configuration not stated), the Papp came out at 173 ×10⁻⁶ cm/s.

`CC(=O)N1CCc2c(sc3c2c(=O)n(-c2ccccc2)c(=O)n3CC(=O)c2ccccc2)C1` showed a Papp of 714 ×10⁻⁶ cm/s.

For `CC(C)(C#N)c1ccc(N2C(=O)OCc3cnc4ccc(-c5cnc6ccccc6c5)cc4c32)cc1`, the Papp was 47.5 ×10⁻⁶ cm/s.

For `Fc1cc(Nc2nc(-c3ccncc3)nc3ccccc23)ccc1-c1ccc(F)c(F)c1F`, the Papp worked out at 57.5 ×10⁻⁶ cm/s.

Molecule `COc1ccc(NC(=O)c2cc(-c3ccc[nH]3)n[nH]2)cc1OC` yielded a Papp of 120 ×10⁻⁶ cm/s.

In turn, `CC(=O)Nc1cccc(Nc2nc3ccccc3n3c(C)nnc23)c1` came in with a Papp of 266 ×10⁻⁶ cm/s.

`Cc1cc(N[S+](=O)([O-])c2ccc(NC(=O)Cc3ccc(F)c(F)c3)cc2)no1` displayed an apparent permeability coefficient (Papp) of 6.43 ×10⁻⁶ cm/s.

Molecule `c1ccc(Nc2nc(NCc3ccco3)c3ccccc3n2)cc1` had a Papp of 930 ×10⁻⁶ cm/s.

`O=c1c2ccccc2nc2n1CCC2` returned a Papp of 44.2 ×10⁻⁶ cm/s.

Consider `Cc1cccc(-c2cc(NC(=O)c3ccccc3C)n(-c3ccccc3)n2)c1`, for which the Papp worked out at 657 ×10⁻⁶ cm/s.

On to `CC(=O)c1c(C)oc2ccc(N(C(=O)Oc3ccccc3)S(=O)(=O)c3ccccc3)cc12`, for which the Papp is over 1000 ×10⁻⁶ cm/s.

With `Cc1noc(C)c1-c1cc2c(cc(C)n2C)c(-c2cnn(C)c2)n1`, the Papp was determined as 549 ×10⁻⁶ cm/s.

On to `CN1C(=O)c2ccccc2[S@](=O)c2ccc(C(=O)NCCc3cccs3)cc21`, for which the Papp is 626 ×10⁻⁶ cm/s.

As to `COc1ccc(-n2c(C)cc(C3=NNC(=NC4CC4)SC3)c2C)cc1`, the Papp is 610 ×10⁻⁶ cm/s.

In turn, `OCC(O)CCO/N=C1/C(c2c(O)[nH]c3ccccc23)=Nc2ccccc21` (configuration not stated) came in with a Papp of 961 ×10⁻⁶ cm/s.

`CC(=O)N[C@H]1CN(C2CCN(c3ccc(F)cc3C)CC2)C[C@@H]1C1CC1` came in with a Papp of over 1000 ×10⁻⁶ cm/s.

The molecule `COc1ccc(CNC(=O)c2cnc3ccccc3n2)cc1` returned a Papp of over 1000 ×10⁻⁶ cm/s.

Consider `CSc1ccccc1N1CCN(CCCCCC(=O)NC2CCCc3ccccc32)CC1` (configuration not stated), for which the apparent permeability coefficient (Papp) was over 1000 ×10⁻⁶ cm/s.

The values above are taken from PubChem BioAssay AID1508612.
